Experimental data as given in PubChem BioAssay AID1259408 (Genetic Toxicology Data Bank (GENE-TOX), 2018).
The source made the active and inactive calls. No rule for the calls is given here.

System: GENE-TOX genotoxicity assays, various organisms and cells
Assay: GENE-TOX mutagenicity studies
Conditions: for call: Assay Type: In vivo carcinogenicity studies, Assay Code: CCG+
[1] = Species/Cell Type: Salmonella typhimurium (one or more of the five standard strains: TA98, TA100, TA1535, TA1537, and TA1538), Assay Type: Histidine reverse gene mutation, Ames assay, Assay Code: SAL+, Evaluation Type: Evaluation A (Pre-1980)
[2] = Species/Cell Type: Nonhuman, Evaluation Type: Evaluation A (Pre-1980)
[3] = Species/Cell Type: Escherichia coli polA (W3119 vs P3478), Assay Type: Rec-assay, DNA effects (bacterial DNA repair), Assay Code: RE1T, Evaluation Type: Evaluation A (Pre-1980)

O=[N+]([O-])c1c(O)ccc2ccccc12
mutagenic call [1]: active; positive

CCc1ccccc1O
mutagenic call (Species/Cell Type: Human lymphocytes, Assay Type: Sister-chromatid exchange (SCE) in vitro, Assay Code: SCLT, Evaluation Type: Evaluation B (Post-1980)): no conclusion
mutagenic call (Species/Cell Type: Human, Assay Type: Sister-chromatid exchange (SCE) in vitro, Assay Code: SC1T, Evaluation Type: Evaluation B (Post-1980)): no conclusion

CCN(CCCO)N=O
mutagenic call (Species/Cell Type: Salmonella typhimurium (one or more of the five standard strains: TA98, TA100, TA1535, TA1537, and TA1538), Assay Type: Histidine reverse gene mutation, Ames assay, Assay Code: SAL+*, Activation: With metabolic activation, Evaluation Type: Evaluation A (Pre-1980)): active; positive

[Zn]
mutagenic call (Species/Cell Type: Human lymphocytes or leukocytes, Assay Type: Chromosome aberrations in vivo, Assay Code: CY8T, Evaluation Type: Evaluation A (Pre-1980)): no conclusion

[S]=[Cd]
mutagenic call (Species/Cell Type: Human lymphocytes or leukocytes, Assay Type: Chromosome aberrations in vitro, Assay Code: CY7+, Evaluation Type: Evaluation A (Pre-1980)): active; positive
call [2]: active; positive

Cc1ccc2cccc(O)c2n1
mutagenic call (Species/Cell Type: Salmonella typhimurium (one or more of the five standard strains: TA98, TA100, TA1535, TA1537, and TA1538), Assay Type: Histidine reverse gene mutation, Ames assay, Assay Code: SALT, Evaluation Type: Evaluation A (Pre-1980)): no conclusion

CC[C@@H](CO)NC(=O)[C@@H]1C=C2c3cccc4c3c(cn4C)C[C@H]2N(C)C1
mutagenic call (Species/Cell Type: Rodents, Sex: Male, Assay Type: Dominant lethal test, Assay Code: DLT+, Evaluation Type: Evaluation A (Pre-1980)): active; positive

COC(=O)Nc1nc2ccccc2[nH]1
mutagenic call (Species/Cell Type: Allium cepa, Assay Type: Chromosome aberrations, Assay Code: ALC+, Evaluation Type: Evaluation A (Pre-1980)): active; positive
mutagenic call (Species/Cell Type: Aspergillus nidulans, Assay Type: Aneuploidy, chromosome aberrations, Assay Code: ASN+, Evaluation Type: Evaluation A (Pre-1980)): active; positive
mutagenic call (Species/Cell Type: Aspergillus nidulans, Assay Type: Mitotic recombination, Assay Code: ASGT, Evaluation Type: Evaluation A (Pre-1980)): no conclusion
mutagenic call (Species/Cell Type: Human lymphocytes, Assay Type: Sister-chromatid exchange (SCE) in vitro, Assay Code: SCL+D, Dose Response: With dose response, Evaluation Type: Evaluation B (Post-1980)): active; positive
mutagenic call (Species/Cell Type: Human, Assay Type: Sister-chromatid exchange (SCE) in vitro, Assay Code: SC1+D, Dose Response: With dose response, Evaluation Type: Evaluation B (Post-1980)): active; positive
mutagenic call (Species/Cell Type: Mouse, Sex: Female, Assay Type: Spot test, gene mutation, Assay Code: MST+, Evaluation Type: Evaluation A (Pre-1980)): active; positive
mutagenic call (Species/Cell Type: Saccharomyces cerevisiae, Assay Type: Mitotic recombination or gene conversion, Assay Code: YEC+, Evaluation Type: Evaluation A (Pre-1980)): active; positive
mutagenic call (Species/Cell Type: Saccharomyces cerevisiae, Assay Type: Mitotic recombination or gene conversion, Assay Code: YEH+, Evaluation Type: Evaluation A (Pre-1980)): active; positive

CC(C)NCCCNc1c2ccccc2nc2cccc([N+](=O)[O-])c12
mutagenic call (Species/Cell Type: Human lymphocytes, Assay Type: Sister-chromatid exchange (SCE) in vitro, Assay Code: SCL+, Evaluation Type: Evaluation A (Pre-1980)): active; positive
mutagenic call (Species/Cell Type: Human, Assay Type: Sister-chromatid exchange (SCE) in vitro, Assay Code: SC1+, Evaluation Type: Evaluation A (Pre-1980)): active; positive

O=C(CNC(=O)c1ccccc1)NO
mutagenic call [1]: active; positive

O=C(OC[C@@H]1O[C@H](OC(=O)c2cc(O)c(O)c(OC(=O)c3cc(O)c(O)c(O)c3)c2)[C@@H](OC(=O)c2cc(O)c(O)c(OC(=O)c3cc(O)c(O)c(O)c3)c2)[C@H](OC(=O)c2cc(O)c(O)c(OC(=O)c3cc(O)c(O)c(O)c3)c2)[C@H]1OC(=O)c1cc(O)c(O)c(OC(=O)c2cc(O)c(O)c(O)c2)c1)c1cc(O)c(O)c(OC(=O)c2cc(O)c(O)c(O)c2)c1
mutagenic call [3]: no conclusion
mutagenic call (Species/Cell Type: Nonhuman, Assay Type: Sister-chromatid exchange (SCE) in vivo, Assay Code: SC3+D, Dose Response: With dose response, Evaluation Type: Evaluation B (Post-1980)): active; positive

Cc1cc(NC(=O)C2=C(O)c3ccccc3S(=O)(=O)N2C)no1
mutagenic call (Species/Cell Type: Human lymphocytes, Assay Type: Sister-chromatid exchange (SCE) in vivo, Assay Code: SCY+, Evaluation Type: Evaluation B (Post-1980)): active; positive

Oc1c(Cl)cc(Cl)c(Cl)c1Cc1c(O)c(Cl)cc(Cl)c1Cl
mutagenic call (Species/Cell Type: Mammalian polychromatic erythrocytes, Assay Type: Micronucleus test, chromosome aberrations, Assay Code: MNTT, Evaluation Type: Evaluation B (Post-1980)): no conclusion

CC(N)=S
mutagenic call (Species/Cell Type: Drosophila melanogaster, Assay Type: Sex-linked recessive lethal gene mutation, Assay Code: SRL+, Evaluation Type: Evaluation A (Pre-1980)): active; positive
mutagenic call (Species/Cell Type: Escherichia coli polA (W3110 vs P3478), Assay Type: Rec-assay, DNA effects (bacterial DNA repair), Assay Code: RE2-, Evaluation Type: Evaluation A (Pre-1980)): inactive; negative
mutagenic call [3]: no conclusion
mutagenic call (Species/Cell Type: Fischer rat embryo (RLV/1706) cells, Assay Type: Cell transformation, viral enhanced, Assay Code: CTR+, Evaluation Type: Evaluation A (Pre-1980)): active; positive
mutagenic call (Species/Cell Type: Mammalian polychromatic erythrocytes, Assay Type: Micronucleus test, chromosome aberrations, Assay Code: MNT+, Evaluation Type: Evaluation B (Post-1980)): active; positive
mutagenic call (Species/Cell Type: Mouse embryo (AKR/ME) cells, Assay Type: Cell transformation, Assay Code: CTK+, Evaluation Type: Evaluation A (Pre-1980)): active; positive
mutagenic call (Species/Cell Type: Mouse, Sex: Male, Assay Type: Sperm morphology, Assay Code: SPI-, Evaluation Type: Evaluation A (Pre-1980)): inactive; negative
call [2]: active; positive
mutagenic call (Species/Cell Type: Saccharomyces cerevisiae, Assay Type: Mitotic recombination or gene conversion, Assay Code: YEH+/-*, Activation: With metabolic activation, Evaluation Type: Evaluation A (Pre-1980)): inactive; positive without activation, negative with activation
mutagenic call (Species/Cell Type: Salmonella typhimurium (one or more of the five standard strains: TA98, TA100, TA1535, TA1537, and TA1538), Assay Type: Histidine reverse gene mutation, Ames assay, Assay Code: SAL-, Evaluation Type: Evaluation A (Pre-1980)): inactive; negative
mutagenic call (Species/Cell Type: Salmonella typhimurium, Assay Type: Forward and reverse gene mutation, host-mediated assay, Assay Code: HMA+, Evaluation Type: Evaluation A (Pre-1980)): active; positive
mutagenic call (Species/Cell Type: Syrian hamster embryo (SHE) cells, Assay Type: Cell transformation, clonal assay, Assay Code: CTC+, Evaluation Type: Evaluation A (Pre-1980)): active; positive
